Data from patent US8222270B2 (Medicis Pharmaceutical Corporation, priority 2008, dated 2012).
Where “and” joins values, the source holds several entries; their conditions need not be identical. Equal values may be shown once.

What was measured:
[1] = parameters: species or system mice; conditions: CD-1, mouse, in vivo, 2 years
[2] = Description: A combined fertility and peri- and post-natal development study was conducted in rats.
[3] = Repeat dose oral toxicity, 6 months; format: in vivo, rats; conditions: dosed daily for 6 months
Description: (§1) The adverse effects observed for the high doses (10-30 mg/kg) in repeat dose oral toxicity studies in rats and monkeys could be related to exaggerated pharmacological effects of excessive cytokines induction and lymphoid stimulation: reduced body weight gains, anaemia, serum protein changes and death. […] An oral no-adverse-effect level of 3 mg/kg/day was determined in both rats and monkeys dosed daily for 6 months.

[4] = Oral (gavage) carcinogenicity study, 24 months
[5] = Intravenous embryofetal development study; format: in vivo, rabbits
[6] = Oral embryofetal development study; format: in vivo, rats
Description: Systemic embryofetal development studies were conducted in rats and rabbits.

[7] = 52-week dermal photoco-carcinogenicity study; format: in vivo, hairless mice; conditions: 3×/week, 40 weeks, concurrent UV radiation
From the text: In a 52-week dermal photoco-carcinogenicity study, the median time to onset of skin tumor formation was decreased in hairless mice following chronic topical dosing (3×/week; 40 weeks of treatment followed by 12 weeks of observation) with concurrent exposure to UV radiation (5 days per week) with vehicle alone.
Vehicle cream enhanced UVR-induced skin tumour development.

[8] = system: interleukin-1 antagonist, interferon-α, 2′5′-oligoadenylate synthetase; experiment: Biomarker response in 58 patients with AK treated 3 times per week for 16 weeks; format: in vivo, human; conditions: 16 weeks of dosing
[9] = Physicochemical properties of the drug substance (solubility, pKa)
Description: Physicochemical Properties: • Physical Form: Crystalline solid that varies in colour from white to off-white or buff. […] It can be made soluble to the extent of at least 100 mg/mL in methanol (as a salt) upon the addition of a few drops of hydrochloric or acetic acid.

[10] = Topical pharmacokinetics, 5 mg/kg three times per week for 4 weeks; conditions: rat, in vivo
[11] = Repeat dose dermal toxicity studies; format: in vivo, rats
Description: A dose-related decrease in body weight of male rats was also observed. No systemic toxicity was found at doses up to 5 mg/kg three days per week for 4 weeks or at doses up to 2.5 mg/kg three days per week for 16 weeks.

[12] = system: human monocytes/macrophages and keratinocytes; experiment: In vitro cytokine induction; format: cell-based
From the text: The panel of cytokines induced varied with the cell's tissue origin.

[13] = Acute dermal toxicity under occlusion
[14] = Skin, eye and vaginal irritation studies; format: in vivo, rabbits
From the text: The more severe dermal irritation seen in the rat is not predictive of human response.

[15] = Acute single dose toxicity (oral, intraperitoneal, subcutaneous, intravenous); format: in vivo
[16] = Repeat dose oral toxicity, 6 months; format: in vivo, monkeys; conditions: dosed daily for 6 months
Description: as §1

Question: What does the source list for `CC(C)Cn1cnc2c(N)nc3ccccc3c21` [imiquimod, 1-(2-methylpropyl)-1H-imidazo[4,5-c]quinolin-4-amine]?
Answer: Carcinogenic effect, female mice ([1]; female): no evidence of a carcinogenic effect; Liver tumours, male mice at the highest dose vs unexposed controls ([1]; male): Liver tumours were increased; Exposure multiple at dose without teratogenicity ([2]; 3 mg/kg/day): 27 ×MRHD based on AUC comparisons; Dose up to which no impairment of reproduction was demonstrated ([2]; daily oral, throughout mating, gestation, parturition and lactation): 8 times recommended human dose on a mg/m^2 basis; Dose at which bent limb bones were noted in the F1 fetuses ([2]; in the absence of maternal toxicity): 6 mg/kg/day; Dose with no treatment related effects on teratogenicity ([2]; oral): 3 mg/kg/day; Oral no-adverse-effect level [3]: 3 mg/kg/day; Exposure multiple, male and female rats ([4]; 3 mg/kg 7×/week): 29 ×MRHD; Exposure multiple, male rats ([4]; 4 mg/kg 2×/week): 45 ×MRHD; Exposure multiple, female rats ([4]; 6 mg/kg 2×/week): 57 ×MRHD based on AUC comparisons; Highest dose tested without treatment related tumors, female rats ([4]; 2×/week, 24 months): 6 mg/kg; Highest dose tested without treatment related tumors, male rats ([4]; 2×/week, 24 months): 4 mg/kg; Highest dose tested without treatment related tumors, male and female rats ([4]; 7×/week, 24 months): 3 mg/kg; Carcinogenic effect, male and female rats ([4]; two-year bioassay, up to 3 mg/kg orally per day): no evidence of a carcinogenic effect; Teratogenicity ([5]; female, rabbit, in vivo): not teratogenic; Dose with no treatment related effects on embryofetal toxicity or teratogenicity ([5]; intravenous, gestational days 6-18): 2 mg/kg/day and 1 mg/kg/day; Exposure multiple at dose with fetal effects ([6]; female, rat, in vivo): 427 ×MRHD based on AUC comparisons; Exposure multiple at no-effect dose ([6]; female, rat, in vivo): 83 ×MRBD based on AUC comparisons; Teratogenicity ([6]; female, rat, in vivo): not teratogenic; High maternally toxic dose with reduced pup weights and delayed ossification ([6]; female, rat, in vivo, 20 mg/kg/day): 28 times human dose on a mg/m^2 basis; Dose at which fetal effects were noted (in the presence of maternal toxicity) ([6]; oral, gestational days 6-15): 20 mg/kg/day; Dose with no treatment related effects on embryofetal toxicity or teratogenicity ([6]; oral, gestational days 6-15): 5 mg/kg/day; Effect on tumor development beyond the vehicle effect [7]: No additional effect on tumor development beyond the vehicle effect; 2′5′-oligoadenylate synthetase, median concentration after multiple dosing vs single dose [8]: approximately 3 fold; Interferon-α, median concentration after multiple dosing vs single dose [8]: ≤ 3 fold; Interleukin-1 antagonist, median concentration after multiple dosing vs single dose [8]: < 2 fold; Solubility in fatty acids such as oleic acid and isostearic acid [9]: Soluble; pKa ([9]; UV spectroscopy and pH-solubility): ~7.5; Solubility in most common organic solvents and in aqueous systems ([9]; except at extremely low pH): Practically insoluble; solubility ([9]; methanol, upon addition of a few drops of hydrochloric or acetic acid, read-out: Solubility in methanol (as a salt)): ≥ 100 mg/mL; Imiquimod in serum [10]: not quantifiable; Dose up to which no systemic toxicity was found ([11]; three days per week for 4 weeks): 5 mg/kg; Dose up to which no systemic toxicity was found ([11]; three days per week for 16 weeks): 2.5 mg/kg; Release of interferon alpha (IFN-α) and other cytokines [12]: induces the release; Dermal lethal dose ([13]; rabbit, in vivo): greater than 5000 mg/kg; LD50 ([13]; rabbit, in vivo, topical, 5000 mg/kg): > 5000 mg/kg; Acute dermal toxicity ([13]; unformulated, under occlusion, 5000 mg/kg): did not reveal any toxic effects; Vaginal tract irritation ([14]; rat or rabbit, every other day for 10 days at 10 and 50 mg/dose): not irritating; Eye irritation ([14]; unformulated at 100 mg/eye or formulated up to 5 mg/eye): mild or no eye irritation; Skin irritation ([14]; unformulated at 500 mg or formulated up to 250 mg per site): non-irritating; LD50 ([15]; Monkey, intravenous bolus): >6 mg/kg; LD50 ([15]; Monkey, intravenous infusion): ≈8 mg/kg; LD50 ([15]; Monkey, oral): >200 mg/kg; LD50 ([15]; Rat, subcutaneous): ≈20 mg/kg; Single dose toxicity signs ([15]; oral, intraperitoneal, subcutaneous or intravenous, lethal doses): central nervous system (CNS) stimulation and convulsions; Oral no-adverse-effect level [16]: 3 mg/kg/day
